Laboratory results: patent publication US7951592B2, “Compositions and methods for inducing cell dedifferentiation” (The Scripps Research Institute, priority 2003, dated 2011)

How the values were obtained:
C2C12 myoblasts cells = settings: at the effective concentration (0.5-5 μM)
Procedure: After four days of treatment with reversine, the compound was removed and cells were then grown in osteogenic differentiation medium (ODM) or adipogenic differentiation medium (ADM).

C2C12 myoblast cells = settings: day four of compound treatment

SMILES: c1nc2nc(Nc3ccc(N4CCOCC4)cc3)nc(NC3CCCCC3)c2[nH]1 [Compound A, 2-(4-Morpholinoanilino)-6-cyclohexylamino-purine]
- cell death (C2C12 myoblasts cells): no significant cell death
- myotube formation (C2C12 myoblast cells; 5 μM): completely inhibited
- myogenic specific markers such as MyoD and myosin (C2C12 myoblast cells): began to disappear
